Test results as given in US20250382274A1, “COMPOSITIONS AND METHODS FOR THE TREATMENT OF PARKINSON'S AND GAUCHER DISEASE” (CHILDREN'S HOSPITAL MEDICAL CENTER, priority 2024, published 2025).
Residue numbers refer to the chain shown, from its start.

Legend:
[1] = target: T1, GCase in healthy human fibroblasts (Homo sapiens, UniProt P04062); assay: EC50 cell-based assay for GCase, healthy human fibroblasts (GCase cell); details: 5 days compound treatment (0-20 μM)
T1 construct: Healthy human fibroblasts (GCase cell); endogenous in cells; host or cells: healthy human fibroblasts
T1 sequence (P04062 40-536): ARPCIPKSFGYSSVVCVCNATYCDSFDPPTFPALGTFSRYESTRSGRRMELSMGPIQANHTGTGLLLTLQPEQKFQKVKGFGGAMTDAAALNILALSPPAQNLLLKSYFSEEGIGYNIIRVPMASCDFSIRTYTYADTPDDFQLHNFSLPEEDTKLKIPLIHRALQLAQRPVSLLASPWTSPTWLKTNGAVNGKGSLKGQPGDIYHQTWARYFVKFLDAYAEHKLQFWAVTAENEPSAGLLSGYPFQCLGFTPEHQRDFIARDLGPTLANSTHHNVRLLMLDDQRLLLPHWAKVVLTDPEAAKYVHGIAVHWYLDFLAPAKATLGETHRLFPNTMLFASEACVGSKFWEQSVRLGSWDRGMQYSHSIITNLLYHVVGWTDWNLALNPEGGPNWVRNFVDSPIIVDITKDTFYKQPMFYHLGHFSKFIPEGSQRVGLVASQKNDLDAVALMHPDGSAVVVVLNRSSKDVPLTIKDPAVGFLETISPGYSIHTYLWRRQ
Procedure: (§1) In cell assays, GCase activity measurements were carried out on harvested cell pellets on the 5th day of Compound treatment. Healthy human fibroblasts (GCase cell), mutant N370/ΔGG (GCase N370S) or L444P/L444P (GCase L444P) were incubated with the Compound (0-20 μM) for 5 days with 15% fetal bovine serum (FBS) in Dulbecco's Modified Eagle Medium (DMEM) in 100 mm culture dishes. Fresh Medium with Compound were replaced every other day. On the 5th day of Compound treatment, harvested cell pellets were lysed with 1% Na-taurocholate (Tc) and 1% Triton X-100 (Tx), and mixed with the reaction buffer which contained 0.025 mM Citric phosphate buffer (pH 5.6), 0.25% Tc/Tx and 4 mM 4-MuGlu, then incubated at 37° C. for 1 hour. EC50 represents the concentration of a Compound that produces 50% of its maximal response in the cell-based GCase activity assay.
(§2) GCase activities were determined fluorometrically with 4-MuGlu. The relative fluorescence unit (RFU) of 4-MuGlu standard curve is generated with the plate reader (M5, Molecular Devise) as 1 n mole=56500 RFU. The human mutant Gaucher fibroblasts were purchased from Coriell Institute (Camden, NJ): N370/ΔGG (Cat #: GM00852) and L444P/L444P (cat #: GM00877)

[2] = target: T2, GCase (purified enzyme, Velaglucerase alfa, VPRIV) (Homo sapiens, UniProt P04062); assay: GCase AC50 enzyme activity assay; format: biochemical; details: pH 5.6, 4-MuGlu substrate, compounds 0-40 μM
T2 construct: purchased Shire Human Genetic Therapies, Cambridge, MA
T2 sequence (P04062 40-536): T1 sequence (P04062 40-536)
Procedure: An in vitro enzyme assay was performed through a dose response curve of Compounds (0-40 μM) with purified enzyme (Velaglucerase alfa, VPRIV®, Shire Human Genetic Therapies, Cambridge, MA) in citric phosphate [0.025 mM] buffer (pH 5.6) where 4-MuGlu [4 mM] was the substrate. Compounds were pre-incubated with the enzyme for 40 minutes at room temperature prior to substrate addition, and then incubated at 37° C. for 1 hour. AC50 represents the concentration of a Compound that produces 50% of its maximal response in the in vitro GCase activity assay.
as §2

[3] = target: T3, GCase N370S (N370/ΔGG human mutant Gaucher fibroblasts) (Homo sapiens, UniProt P04062, N409S); assay: EC50 cell-based assay for GCase, mutant N370/ΔGG fibroblasts (GCase N370S); details: 5 days compound treatment (0-20 μM)
T3 construct: The human mutant Gaucher fibroblasts were purchased from Coriell Institute; host or cells: human Gaucher fibroblasts N370/ΔGG
T3 sequence (P04062 40-536 N409S): T1 sequence (P04062 40-536) with N370S
Procedure: as §1, §2

[4] = target: T4, GCase L444P (L444P/L444P human mutant Gaucher fibroblasts) (Homo sapiens, UniProt P04062, L483P); assay: EC50 cell-based assay for GCase, mutant L444P/L444P fibroblasts (GCase L444P); details: 5 days compound treatment (0-20 μM)
T4 construct: The human mutant Gaucher fibroblasts were purchased from Coriell Institute; host or cells: human Gaucher fibroblasts L444P/L444P
T4 sequence (P04062 40-536 L483P): T1 sequence (P04062 40-536) with L444P
Procedure: as §1, §2

Row | SMILES | EC50 [1] | AC50 [2] | EC50 [3] | EC50 [4]
1 | O=C(COc1ccccc1C(=O)NCC1CCO1)Nc1ccc(Br)cc1 (stereo not drawn) [Compound 2, 2-((4-bromophenylcarbamoyl)methoxy)-N-((oxetan-2-yl)methyl)benzamide] | 10 to 100 µM | < 10 µM | < 10 µM | –
2 | COc1ccc(NC(=O)c2nc3cccc(C(=O)NCC4CCCO4)c3o2)cc1 (stereo not drawn) [Compound 8, N7-((tetrahydrofuran-2-yl)methyl)-N2-(4-methoxyphenyl)benzo[d]oxazole-2,7-dicarboxamide] | < 10 µM | < 10 µM | < 10 µM | < 10 µM
3 | COc1ccc(NC(=O)C(C)(C)Oc2ccccc2C(=O)NCC2CCCO2)cc1 (stereo not drawn) [Compound 32, 2-(2-(4-methoxyphenylcarbamoyl)propan-2-yloxy)-N-((tetrahydrofuran-2-yl)methyl)benzamide] | < 10 µM | < 10 µM | 10 to 100 µM | –
4 | O=C(Nc1ccc(O)cc1)c1nc2cc(F)cc(C(=O)NCC3CCO3)c2o1 (stereo not drawn) [Compound 26, 5-fluoro-N2-(4-hydroxyphenyl)-N7-(oxetan-2-ylmethyl)benzo[d]oxazole-2,7-dicarboxamide] | < 10 µM | < 10 µM | < 10 µM | < 10 µM
5 | O=C(Nc1ccc(Br)cc1)c1nc2cccc(C(=O)NCC3CCCO3)c2o1 (stereo not drawn) [Compound 4, N2-(4-bromophenyl)-N7-((tetrahydrofuran-2-yl)methyl)benzo[d]oxazole-2,7-dicarboxamide] | < 10 µM | < 10 µM | < 10 µM | –
6 | O=C(Nc1ccc(Br)cc1)c1cc2cccc(C(=O)NCC3CCCO3)c2o1 (stereo not drawn) [Compound 3, N2-(4-bromophenyl)-N7-((tetrahydrofuran-2-yl)methyl)benzofuran-2,7-dicarboxamide] | < 10 µM | < 10 µM | – | –

Other lines, results leading:

Row | EC50 [1] | AC50 [2] | EC50 [3] | EC50 [4] | SMILES
7 | < 10 µM | < 10 µM | < 10 µM | < 10 µM | CN1CCC(NC(=O)C(C)(C)Oc2ccccc2C(=O)NCC2CCCO2)CC1 (stereo not drawn) [Compound 37, 2-(2-(1-methylpiperidin-4-ylcarbamoyl)propan-2-yloxy)-N-((tetrahydrofuran-2-yl)methyl)benzamide]
8 | < 10 µM | < 10 µM | – | – | O=C(NCC1CCO1)c1cccc2c1CN(C(=O)Nc1ccc(C(F)(F)F)cc1)C2 (stereo not drawn) [Compound 40, N4-(oxetan-2-ylmethyl)-N2-[4-(trifluoromethyl)phenyl]isoindoline-2,4-dicarboxamide]
9 | < 10 µM | < 10 µM | – | – | O=C(Nc1ccc(OCF)cc1)c1nc2cc(F)cc(C(=O)NCC3CCO3)c2o1 (stereo not drawn) [Compound 47, 5-fluoro-N2-[4-(fluoromethoxy)phenyl]-N7-(oxetan-2-ylmethyl)-1,3-benzoxazole-2,7-dicarboxamid]
